Data set [1] concerns cervical carcinoma HeLa cells and chronic myelogenous leukemia K562 cells. The experiment in a line: MTT cytotoxicity, summary ranges over HeLa and K562 cells. It is filed as cell-based. The note with it: Homo sapiens, read-out: IG50 (the source's name). On the procedure: Compound 1, where R = ethyl, X = I (formula 1a) and the compound 1 where R = n-octyl, and X = I (formula 1b, were tested for cytotoxic properties on two representatives of human tumor cells: adherent HeLa cells (cervical carcinoma) and suspension K562 cells (chronic myelogenous leukemia). The cytotoxicity of the test compounds was determined with the MTT test in which the yellow tetrazolium salt is reduced by dehydrogenase in the mitochondria of living cells into a purple formazan. 1.HeLa or K562 cells were seeded in 96-well plates in the amount of seven thousand cells/well in 200 µL of culture medium. Cells were incubated overnight in an incubator (37 °C, 5% CO2) 2. The tested compound was added to the cells to yield the following final concentrations in the cell culture: 1 mM, 10 µM, 100 nM, 1 nM. Cells treated with 1% DMSO served as the control with 100% viability. 3. […] MTT, a yellow tetrazolium salt is reduced to purple formazan by mitochondrial dehydrogenases of living cells, the quantity of which can be determined spectrophotometrically. Cells were incubated with MTT for two hours in an incubator (37 ° C, 5% CO2). Next, lysis buffer containing SDS and DMF was added (95 µL / well). Cells were lysed overnight at 37 ° C, 5% CO2. 4. The absorbance of each well was read on FLUOstar Omega reader at the wave length of 570 and 650 nm. The absorbance measured at 570 nm is proportional to the number of viable cells. The viability of the cells was calculated for each concentration of the test compound. The IC50 values were read from the dose - viability plots by interpolation to 50% cell survival. 5.The results indicating the strong toxicity of both, compound 1a and compound 1b to the adherent HeLa cells and suspension K562 cells are shown in Tables 1 and 2.

Data set [2] deals with K562 cells (chronic myelogenous leukemia). Kind of data set: MTT cytotoxicity test on suspension K562 cells. To be noted: for fold decrease of IC50 after 48 h compared to IC50 after 24h: K562 cells; for cytotoxicity, times greater in relation to the salt Fh3P^+C5H11 I^-: K562 cells after 48 h. It is filed as cell-based, human. On the procedure:
(§1) Compound 1, where R = ethyl, X = I (formula 1a) and the compound 1 where R = n-octyl, and X = I (formula 1b, were tested for cytotoxic properties on two representatives of human tumor cells: adherent HeLa cells (cervical carcinoma) and suspension K562 cells (chronic myelogenous leukemia). The cytotoxicity of the test compounds was determined with the MTT test in which the yellow tetrazolium salt is reduced by dehydrogenase in the mitochondria of living cells into a purple formazan. 1.HeLa or K562 cells were seeded in 96-well plates in the amount of seven thousand cells/well in 200 µL of culture medium. Cells were incubated overnight in an incubator (37 °C, 5% CO2) 2. The tested compound was added to the cells to yield the following final concentrations in the cell culture: 1 mM, 10 µM, 100 nM, 1 nM. Cells treated with 1% DMSO served as the control with 100% viability. 3. After 24 h or 48 h incubation of HeLa or K562 cells with test compounds, 25 µL of MTT (5 mg / mL) was added to each well. MTT, a yellow tetrazolium salt is reduced to purple formazan by mitochondrial dehydrogenases of living cells, the quantity of which can be determined spectrophotometrically. Cells were incubated with MTT for two hours in an incubator (37 ° C, 5% CO2). Next, lysis buffer containing SDS and DMF was added (95 µL / well). Cells were lysed overnight at 37 ° C, 5% CO2. 4. The absorbance of each well was read on FLUOstar Omega reader at the wave length of 570 and 650 nm. The absorbance measured at 570 nm is proportional to the number of viable cells. The viability of the cells was calculated for each concentration of the test compound. The IC50 values were read from the dose - viability plots by interpolation to 50% cell survival. 5.The results indicating the strong toxicity of both, compound 1a and compound 1b to the adherent HeLa cells and suspension K562 cells are shown in Tables 1 and 2.
(§2) The compound of formula 1c was tested for cytotoxic properties on two human cell lines using the MTT assay (yellow tetrazolium salt transformed by dehydrogenase in the mitochondria of living cells into the purple formazan). The tests were performed on HeLa (cervical carcinoma) and K562 (chronic myelogenous leukemia) cells.
(§3) (Experimental protocol as in Example I).
Background: Formazan colour is commonly taken as a measure of viable cells.

The subject of data set [3] is HeLa cells (cervical carcinoma). Kind of data set: MTT cytotoxicity test on adherent HeLa cells. It is filed as cell-based, human. To be noted: for cytotoxicity, times greater in relation to the salt Fh3P^+C5H11 I^-: HeLa cells after 48 h; for IC50: Homo sapiens, HeLa. On the procedure: as §1, §2, §3
The next data set concerns HeLa cells. The note with it: read-out: cytotoxicity EC50; cited from earlier work.
The test system of data set [4] is cervical carcinoma cells (HeLa). To be noted: after 24 h, PL395749; cited from earlier work.
The subject of the next data set is K562 and HeLa cells. To be noted: PL395749, cited from earlier work.
The subject of the next data set is K562 cells. The note with it: K562, 24 h; PL395749; cited from earlier work.
[5] abbreviates: Homo sapiens, K562, 24 h, read-out: IC50.
Setting [6] is: Homo sapiens, K562, 48 h, read-out: IC50.

Consider five compounds from patent EP3124027A1, “TRIPHENYLPHOSPHONIUM SALTS FOR USE IN CANCER THREAPY” (Centrum Badan Molekularnych I Makromolekularnych Polskiej …, priority 2015, dated 2017).

Structures are written as SMILES. Where two headings read alike, the source gives them in different places.

A word on the EC50: it is the concentration needed to bring the measured effect to its halfway point.

In the case of `CCCCCCCCCCCCCCCC[P+](c1ccccc1)(c1ccccc1)c1ccccc1.[I-]` [Compound 1b, triphenyl-n-hexadecylphosphonium iodide], the IC50 is 2 to 7 µM in data set [1] (after 4 h (so in the source)); 0.5 to 5 µM in data set [1] (after 48 hrs); 2 µM in data set [2] (setting [5]); 0.5 µM in data set [2] (setting [6]); 5 µM in data set [3] (24h, read-out: IC50); 4 µM in data set [3] (48h, read-out: IC50). In data set [2], the “fold decrease of IC50 after 48 h compared to IC50 after 24h” value is “four”. Besides, the figures for the “cytotoxicity, times greater in relation to the salt Fh3P^+C5H11 I^-” value in data set [2] and in data set [3] were 12 times and 12-15 times, respectively.
As to `CCCCCCCCCC[P+](c1ccccc1)(c1ccccc1)c1ccccc1.[I-]` [Compound 1a, n-decyltriphenylphosphonium iodide], the IC50 in data set [1] (after 4 h (so in the source)) is 2 to 7 µM; in data set [1] (after 48 hrs), 0.5 to 5 µM; in data set [2] (setting [5]), 3 µM; in data set [2] (setting [6]), 0.5 µM; in data set [3] (24h, read-out: IC50) it was 7 µM; in data set [3] (48h, read-out: IC50) it was 5 µM. Also, in data set [2], the “fold decrease of IC50 after 48 h compared to IC50 after 24h” value was “six”. Besides, the figures for the “cytotoxicity, times greater in relation to the salt Fh3P^+C5H11 I^-” value in data set [2] and in data set [3] were 12 times and 12-15 times, respectively.
Regarding `CCCCCCCCCCCCCC[P+](CCCCCC)(CCCCCC)CCCCCC.O=S(=O)([N-]S(=O)(=O)C(F)(F)F)C(F)(F)F` [tri-n-hexyl(tetradecyl)phosphonium bis(trifluoromethylsulfonyl) imide], the 50% effective concentration (EC50) in the data set with HeLa cells is 80 µM.
For `CCCCC[P+](c1ccccc1)(c1ccccc1)c1ccccc1` [Compound C5], the IC50 is 90 µM in data set [4]; 50 to 90 µM in the data set on K562 and HeLa cells (after 24 h); 6 to 60 µM in the data set on K562 and HeLa cells (second value for C5, printed after 24 h); 50 µM in the data set on K562 cells.
Take `BrCc1ccc(-c2ccc(C[P+](c3ccccc3)(c3ccccc3)c3ccccc3)cc2)cc1` [Compound 1c]: the IC50 in data set [2] (Homo sapiens, K562, 48 h, K562, 48 h (Table 2, compound 1c), read-out: IC50 48 h) amounted to 6 µM; in data set [2] (K562, 48 h (Table 2, compound 1c), read-out: IC50 48 h) it was 5 µM; in data set [3] (48 h (Table 2, compound 1c), read-out: IC50 48 h), 30 µM.
